Data on 13 molecules can be found in ChEMBL document CHEMBL1139593, “Synthesis and biological evaluation of chromone carboxamides as calpain inhibitors” (Bioorg Med Chem Lett, 2005).

For assay [1], the target named is T1, Calpain-1 catalytic subunit (Homo sapiens, UniProt P07384).
T1 sequence (P07384 whole entry): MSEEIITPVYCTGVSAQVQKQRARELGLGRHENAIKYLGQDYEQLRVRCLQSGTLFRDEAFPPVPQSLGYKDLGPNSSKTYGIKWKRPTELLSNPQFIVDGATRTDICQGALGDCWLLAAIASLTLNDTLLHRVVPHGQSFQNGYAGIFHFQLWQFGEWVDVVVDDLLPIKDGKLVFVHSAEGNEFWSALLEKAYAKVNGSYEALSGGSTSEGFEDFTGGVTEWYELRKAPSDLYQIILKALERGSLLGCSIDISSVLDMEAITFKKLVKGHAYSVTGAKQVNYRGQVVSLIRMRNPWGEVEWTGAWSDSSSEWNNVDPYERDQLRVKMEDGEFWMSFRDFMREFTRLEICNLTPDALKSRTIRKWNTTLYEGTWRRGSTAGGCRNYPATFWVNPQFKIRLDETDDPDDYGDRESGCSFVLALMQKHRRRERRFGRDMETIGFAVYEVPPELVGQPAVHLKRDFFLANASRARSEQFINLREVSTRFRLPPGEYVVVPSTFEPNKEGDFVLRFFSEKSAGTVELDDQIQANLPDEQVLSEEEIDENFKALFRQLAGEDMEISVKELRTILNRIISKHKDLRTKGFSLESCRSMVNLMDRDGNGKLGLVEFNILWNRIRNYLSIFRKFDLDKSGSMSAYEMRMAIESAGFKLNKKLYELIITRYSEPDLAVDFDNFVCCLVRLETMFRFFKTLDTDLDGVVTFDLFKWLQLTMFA
Kind of assay: Inhibitory concentration against human plasma mu-calpain. It is filed as cell-free.

Assay [2] deals with Cathepsin B (Bos taurus) (UniProt P07688). Kind of assay: Percent inhibition of bovine cathepsin B at 2 uM.
For assay [3] the target is unchanged. Kind of assay: Percent inhibition of bovine cathepsin B at 20 uM.
For assay [4] the target is unchanged. Kind of assay: Percent inhibition of bovine cathepsin B at 0.2 uM.
The target of assay [5] is Procathepsin L (Homo sapiens) (UniProt P07711). Description: Percent inhibition of human liver cathepsin L at 2 uM.
Chain of Procathepsin L (Homo sapiens) (P07711 114-333 limits assumed): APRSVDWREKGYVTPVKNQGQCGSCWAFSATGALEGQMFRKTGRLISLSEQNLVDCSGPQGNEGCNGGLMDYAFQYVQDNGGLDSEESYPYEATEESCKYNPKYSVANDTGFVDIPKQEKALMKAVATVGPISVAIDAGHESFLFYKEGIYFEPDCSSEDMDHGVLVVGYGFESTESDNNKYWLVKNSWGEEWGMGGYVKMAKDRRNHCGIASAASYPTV
Assay [6] shares this target. Kind of assay: Percent inhibition of human liver cathepsin L at 20 uM.
Assay [7] shares this target. Description: Percent inhibition of human liver cathepsin L at 0.2 uM.

By IC50 is commonly meant the concentration at which inhibition is half-maximal. A low value points to greater potency in that assay. In general, inhibition refers to the drop in the measured response relative to a control, in per cent. High values mean strong suppression, low ones little suppression.

Square brackets hold non-standard residues; d marks the D form. Peptide text beside a SMILES is read from it. * marks the point of attachment. ξ: configuration not given here. ξF = NC(Cc1ccccc1)C(=O)O; Cbz = O=C(OCc1ccccc1)*

As to `Cc1c(C(=O)N[C@@H](Cc2ccccc2)C(=O)C(N)=O)oc2ccccc2c1=O`, the IC50 in assay [1] came to 240 nM. For the same molecule, the inhibition is 63.2% in assay [2]; 91.5% in assay [3]; 14.4% in assay [4]; 81.5% in assay [5]; 98.1% in assay [6]; 22.4% in assay [7].
On to `Cc1c(C(=O)N[C@@H](Cc2ccccc2)C(=O)C(=O)NCc2ccccc2)oc2ccccc2c1=O`, for which 720 nM corresponded to half-maximal inhibition in assay [1] (IC50). The inhibition came to 21.3% in assay [2]; 67.9% in assay [3]; 0% in assay [4]; 65.3% in assay [5]; 95.6% in assay [6]; 8.1% in assay [7].
In the case of `Cc1c(C(=O)N[C@@H](Cc2ccccc2)C(=O)C(=O)NCc2ccccc2)oc2cc3c(cc2c1=O)OCCO3`, the IC50 in assay [1] was determined as 2480 nM. Also, the inhibition in assay [2] was found to be 18.6%; in assay [3], 58.2%; in assay [4] it was 0%; in assay [5], 83.8%; in assay [6], 95.8%; in assay [7] it was 12.7%.
With `Cc1c(C(=O)N[C@@H](Cc2ccccc2)C(=O)C(=O)NC(C)C)oc2ccccc2c1=O`, the IC50 in assay [1] was found to be 5690 nM. Also, the inhibition in assay [2] was determined as 0%; in assay [3], 42.6%; in assay [4], 0%; in assay [5], 17.5%; in assay [6] it was 71.2%; in assay [7], 2.1%.
Consider `Cc1c(C(=O)N[C@@H](Cc2ccccc2)C(=O)C(=O)NCCc2ccccc2)oc2cc3c(cc2c1=O)OCCO3`, for which, in assay [1], the IC50 worked out at 4530 nM. The inhibition in assay [2] was 35.3%; in assay [3], 41.4%; in assay [4] it was 0%; in assay [5], 66.8%; in assay [6] it was 95.7%; in assay [7], 7.4%.
As for `CCc1c(C(=O)N[C@@H](Cc2ccccc2)C(=O)C(N)=O)oc2ccccc2c1=O`, in assay [1], the midpoint of inhibition, the IC50, lay at 450 nM. Besides, the inhibition was 61.2% in assay [2]; 91.5% in assay [3]; 16.9% in assay [4]; 89.2% in assay [5]; 96.6% in assay [6]; 31.9% in assay [7].
On to `Cc1c(C(=O)N[C@@H](Cc2ccccc2)C(=O)C(=O)NCCN2CCOCC2)oc2cc3c(cc2c1=O)OCCO3`, for which the 50% inhibitory concentration (IC50) in assay [1] is more than 20000 nM. Besides, the inhibition was found to be 0% in assay [2]; 20.2% in assay [3]; 0% in assay [4]; 26.5% in assay [5]; 92% in assay [6]; 0% in assay [7].
In assay [1], `NC(=O)C(=O)[C@H](Cc1ccccc1)NC(=O)c1cc(=O)c2ccccc2o1` yielded an IC50 of 8730 nM. The inhibition in assay [2] amounted to 55.4%; in assay [3] it was 79.9%; in assay [4] it was 21.5%; in assay [5], 87.7%; in assay [6], 99.1%; in assay [7] it was 54.2%.
`Cc1c(C(=O)N[C@@H](Cc2ccccc2)C(=O)C(=O)NCCN2CCOCC2)oc2ccccc2c1=O`: in assay [1], the IC50 worked out at 8170 nM. The inhibition came to 0% in assay [2]; 23.9% in assay [3]; 0% in assay [4]; 9.6% in assay [5]; 69.6% in assay [6]; 0% in assay [7].
On to `CC(C)[C@H](NC(=O)OCc1ccccc1)C(=O)NC(C=O)Cc1ccccc1` (stereo partly drawn) (Cbz-Val-[ξF]-aldehyde), for which the inhibition in assay [2] was 96.6%; in assay [3], 100%; in assay [4], 96%; in assay [5], 100%; in assay [6] it was 100%; in assay [7], 100%.
As for `Cc1c(C(=O)N[C@@H](Cc2ccccc2)C(=O)C(=O)NCCc2ccccc2)oc2ccccc2c1=O`, the IC50 in assay [1] was found to be 530 nM. Moreover, the inhibition in assay [2] was 49%; in assay [3], 82.1%; in assay [4], 0%; in assay [5] it was 78.9%; in assay [6] it was 98.3%; in assay [7], 10.1%.
Take `Cc1c(C(=O)N[C@@H](Cc2ccccc2)C(=O)C(N)=O)oc2cc3c(cc2c1=O)OCCO3`: the IC50 in assay [1] turned out to be 810 nM. The inhibition in assay [2] worked out at 60.8%; in assay [3] it was 92.2%; in assay [4], 26.3%; in assay [5], 86.3%; in assay [6] it was 96.6%; in assay [7] it was 32.5%.
`Cc1c(C(=O)N[C@@H](Cc2ccccc2)C(=O)C(=O)NC(C)C)oc2cc3c(cc2c1=O)OCCO3` had a half-maximal inhibitory concentration (IC50) in assay [1] of more than 20000 nM. Moreover, the inhibition worked out at 0% in assay [2]; 42.2% in assay [3]; 0% in assay [4]; 24.6% in assay [5]; 74.9% in assay [6]; 1.7% in assay [7].
